Assay results from patent publication JP2023117892A, “ヘプシジン結合ペプチド” (Public Interest Inc Foundation Oyokyo, priority 2022, dated 2023).
Positions of bridges follow the written chain, without caps; N, C: chain ends. Residues, ends and D or L forms follow the SMILES beside them. No end group written: not given here.

What was measured:
[1] = tested on: human ferroportin fused to EGFP (FPN-EGFP) (ヒトのフェロポーチン(FPN)にEGFPを融合させたタンパク質); assay: Western blot of ferroportin (FPN-EGFP) in HEK293 cells treated with hepcidin; type: cell-based; conditions: HEK293 expressing FPN-EGFP
[2] = target: T1, hepcidin (ヘプシジン) (Homo sapiens, UniProt P81172); assay: Bio-layer interferometry (BLI) of the peptide on biotinylated hepcidin (Octet K2); type: binding; design: ビオチン化ヘプシジン(Bachem社製); purchased Bachem; conditions: peptide 2.5, 4, 6, 8 or 10 μM
T1 sequence (P81172 60-84 limits assumed): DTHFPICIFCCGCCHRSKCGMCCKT

[3] = tested on: C57/BL6 mice (マウス(C57/BL6)); assay: Serum iron in mice given hepcidin; type: in vivo, mouse; conditions: Fig. 7C
[4] = tested on: HepG2 cells, human liver cancer-derived (ヒト肝癌由来細胞HepG2); assay: Intracellular iron (ferritin ELISA) in HepG2 cells treated with hepcidin; type: cell-based; conditions: Fig. 7A
[5] = tested on: COS-1 cells, monkey kidney-derived fibroblasts (サル腎臓由来線維芽細胞(COS-1)); assay: Intracellular iron (ferritin ELISA) in FPN-EGFP-expressing COS-1 cells treated with hepcidin; type: cell-based; conditions: COS-1 expressing FPN-EGFP, Fig. 7B
[6] = tested on: renal anemia model mice (腎性貧血モデルマウス); assay: Effect of HBP in renal anemia model mice (adenine sulfate-induced renal failure); type: in vivo, mouse
[7] = target: T1, hepcidin (ヘプシジン); assay: Phage display screening (Ph.D-12 library) on hepcidin-immobilised beads; type: binding; design: ビオチン化ヘプシジン(Bachem社製); purchased Bachem; conditions: displayed on M13 phage pIII; most frequent sequence among 64 plaques after the 5th panning
[8] = target: T1, hepcidin (ヘプシジン); assay: Binding of the 12-amino-acid peptide to hepcidin, linear versus cyclised
[9] = peptide added simultaneously with hepcidin
[10] = AdS-induced renal anemia mice, HBP day 15 to day 21 (7 times), blood on day 22, versus control (PBS), Fig. 4C-E

## CSCC[C@@H]1NC(=O)[C@H](CO)NC(=O)[C@@H]2CCCN2C(=O)[C@H](Cc2c[nH]c3ccccc23)NC(=O)[C@H](CCSC)NC(=O)[C@H](CC(=O)O)NC(=O)[C@H](Cc2c[nH]c3ccccc23)NC(=O)[C@H](CO)NC(=O)[C@@H](NC(=O)[C@H](C)NC(C)=O)CSSC[C@@H](C(=O)NCC(N)=O)NC(=O)CNC(=O)[C@H](CCC(=O)O)NC(=O)[C@H](C)NC(=O)[C@H](CCCCN)NC(=O)[C@H](Cc2c[nH]c3ccccc23)NC(=O)[C@H](CC(=O)O)NC1=O [HBP, ACSWDMWPSMDWKAEGCG] (Ac-ACSWDMWPSMDWKAEGCG-NH2; disulfide 2-17)
[1]; peptide added simultaneously with human hepcidin, Fig. 6 lanes 4 and 5
  amount of ferroportin (FPN-EGFP): FPN-EGFP量の低下が抑制された
[2]; biotinylated hepcidin on streptavidin sensor chip, read-out: dissociation constant
  Kd: 29 nM
[2]; Fig. 3
  specific binding to hepcidin: ヘプシジンに特異的に結合することが確認された
[3]; peptide given simultaneously with hepcidin
  serum iron: 血中鉄量の減少が抑制された
[4]; [9]
  intracellular iron (as ferritin): 細胞内鉄量の増加が抑制された
[5]; [9]
  intracellular iron (as ferritin): 細胞内鉄量の増加が抑制された
[6]; [10]
  hematocrit (HCt): 有意に上昇した
  hemoglobin (Hb): 有意に上昇した
  red blood cell count (RBC): 有意に上昇した
[6]; AdS-induced renal failure mice, HBP day 15 to day 21, day 22, BUN, CRE, serum iron, TSAT, ferritin, CRP, hepcidin, EPO, Fig. 5A-H
  blood biochemistry showing improvement of anemia and renal failure: 貧血の改善及び腎不全の改善を示す結果が確認された

## ヘプシジン: human hepcidin (Peptide Institute, Inc.) (DTHFPICIFCCGCCHRSKCGMCCKT; ends and bridges not checked; cysteine pairing not given here; UniProt P81172 60-84, looked up) [reference compound]
[1]; hepcidin added alone, Fig. 6 lane 3
  amount of ferroportin (FPN-EGFP): フェロポーチンの量(FPN-EGFP量)は低下した
[3]; hepcidin alone
  serum iron: 血中の鉄量は減少した
[4]; hepcidin alone
  intracellular iron (as ferritin): 細胞内の鉄量は増加した
[5]; hepcidin alone
  intracellular iron (as ferritin): 細胞内の鉄量は増加した

## WDMWPSMDWKAE
[7]
  possibility of specific binding to hepcidin: ヘプシジンに特異的に結合する可能性が示された
[8]; cyclised form
  binding to hepcidin: ヘプシジンに特異的に結合する
[8]; linear form
  binding to hepcidin: 線状ではヘプシジンに結合しない
